From patent publication US9642874B2, “Compositions of selenoorganic compounds and methods of use thereof” (Alltech, Inc., priority 2014, dated 2017) come the findings set out here.

In this assay the test system is PDK1. Nature of the assay: Western blot of pPdk1 in primary mouse hepatocytes. Particulars: 100 nM insulin 6 hours, or Compounds CDE both doses 24 hours + 6 hours. The assay is classed as cell-based. The protocol: The overnight-acclimated hepatocytes were washed twice with PBS (to remove any residual FBS and other additives in the TRL hepatocyte maintenance medium, pretreated with control (water) or selenium Compounds CDE (150 or 300 ppb of each selenium compound) in DMEM/F12 media supplemented with 10% fetal bovine serum (FBS) for 24 hr. These cells were then washed twice with PBS and incubated with the same dose of selenium Compounds CDE (150 or 300 ppb) in the presence or absence of insulin (10 or 100 nM, Sigma), 0.1 mM 8-CPT (Sigma) or 0.5 μM Dex (Sigma) in serum-free and glucose-free DMEM media (Invitrogen) supplemented with 20 mM lactose (Sigma) and 2 mM pyruvate (Sigma) and 15 mM HEPES (Sigma) for another 6 hours. […]
After the above described treatments, primary mouse hepatocytes were rinsed with ice-cold PBS and lysed in the ice-cold RIPA buffer containing complete proteinase and phosphatase inhibitors (Thermo-Fisher Scientific, Waltham, Mass.) on ice for 30 min Cell lysates were collected using a cell scraper and transfer pipette and then centrifuged at 12000×g for 30 min at 4° C. to remove the DNA pellet and obtain the protein extract. Protein levels in the supernatant of these cell lysates were determined using the Pierce Micro-BCA protein assay kit (Thermo Scientific-Piece Biotechnology, Rockford, Ill.) according to the manufacturer's protocol. […]

Turning to “insulin: insulin (10 or 100 nM, Sigma) used as comparator and cotreatment”, the “pPdk1 protein level (in words)” value is given as “significant increase”.
